Legend:
[1] = biological target: T1, B-RAF V600E (Homo sapiens, UniProt P15056, V600E); experiment: Target protein degradation, assay C: T-Rex 293 cells, HA-BRAF_V600E, 384 well format; assay type: cell-based; settings: T-Rex 293 HA-BRAF_V600E cells, 24 hours, Examples 83-269; for DC50: Assay C; for Dmax: T-REx-293, Assay C
T1 construct: expressed in transfected cells; host or cells: T-Rex 293 cells (Invitrogen #R71007)
How it was run: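 After 24 h exposure to an 11-point 1:3 series (300 nM–5 pM, 0.5% DMSO), fixed T-Rex 293 cells carrying HA-BRAF V600E (induced with 1 ng/mL doxycycline) were stained anti-HA and imaged. DC50 and Dmax were derived from BRAF intensity relative to control, and cytotoxicity from nuclear counts.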

[2] = biological target: T2, B-RAF G466V (Homo sapiens, UniProt P15056, G466V); experiment: Target protein degradation, assay D: T-Rex 293 cells, HA-BRAF_G466V, 384 well format; assay type: cell-based; settings: T-Rex 293 HA-BRAF_G466V cells, 24 hours, Examples 83-269; for DC50: Assay D; for Dmax: T-REx-293, Assay D
T2 construct: expressed in transfected cells; host or cells: T-Rex 293 cells (Invitrogen #R71007)
How it was run: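 Degradation measured by high-content imaging of anti-HA immunofluorescence in fixed T-Rex 293 cells carrying inducible HA-BRAF G466V (1 ng/mL doxycycline), after 24 h PROTAC exposure at 37 °C over 300 nM–5 pM (1:3, 11 points, 0.5% DMSO). Outputs DC50 and Dmax as % of control; nuclei counts against DMSO wells gauge toxicity.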

T2 sequence (P15056 whole entry G466V): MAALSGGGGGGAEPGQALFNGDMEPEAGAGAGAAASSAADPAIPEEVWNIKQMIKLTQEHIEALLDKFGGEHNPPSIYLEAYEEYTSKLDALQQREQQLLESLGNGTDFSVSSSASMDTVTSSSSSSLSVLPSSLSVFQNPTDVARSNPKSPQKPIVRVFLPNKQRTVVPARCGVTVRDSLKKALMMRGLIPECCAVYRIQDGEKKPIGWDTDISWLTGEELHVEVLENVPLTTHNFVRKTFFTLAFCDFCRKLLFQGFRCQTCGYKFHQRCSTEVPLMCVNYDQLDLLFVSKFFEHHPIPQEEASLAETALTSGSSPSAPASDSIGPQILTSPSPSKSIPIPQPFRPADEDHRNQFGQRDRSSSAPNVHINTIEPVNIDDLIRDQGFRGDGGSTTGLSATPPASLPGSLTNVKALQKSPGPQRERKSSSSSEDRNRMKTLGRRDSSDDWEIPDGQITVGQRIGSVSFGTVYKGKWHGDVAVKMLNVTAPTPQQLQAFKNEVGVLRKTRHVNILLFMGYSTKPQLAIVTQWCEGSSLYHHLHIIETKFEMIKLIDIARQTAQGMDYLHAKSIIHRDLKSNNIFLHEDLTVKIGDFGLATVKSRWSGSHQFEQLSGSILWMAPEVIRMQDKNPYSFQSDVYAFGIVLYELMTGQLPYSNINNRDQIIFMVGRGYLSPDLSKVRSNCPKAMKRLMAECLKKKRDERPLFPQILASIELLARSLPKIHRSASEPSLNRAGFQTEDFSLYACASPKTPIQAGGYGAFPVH
T1 sequence (P15056 whole entry V600E): as the sequence (P15056 whole entry G466V) above, with V466G, V600E counted along it

COc1cc(N2CCN(c3ccc(-n4cnc5ccc(Oc6c(F)ccc(NS(=O)(=O)N7CC[C@@H](F)C7)c6C#N)cc5c4=O)cn3)CC2)cc2c1C(=O)N(C1CCC(=O)NC1=O)C2=O (stereo partly drawn) [Example 139, (3R)-N-(2-cyano-3-{[3-(6-{4-[2-(2,6-dioxopiperidin-3-yl)-7-methoxy-1,3-dioxo-2,3-dihydro-1H-isoindol-5-yl]piperazin-1-yl}pyridin-3-yl)-4-oxo-3,4-dihydroquinazolin-6-yl]oxy}-4-fluorophenyl)-3-fluoropyrrolidine-1-sulfonamide]
DC50 [1]: 5 to 50 nM | Dmax [1]: ≤ 35% | DC50 [2]: > 30 nM

N#Cc1c(NS(=O)(=O)N2CC[C@@H](F)C2)ccc(F)c1Oc1ccc2ncn(-c3ccc(N4CCC(CN5CC(c6ccc([C@H]7CCC(=O)NC7=O)cc6F)C5)CC4)cc3)c(=O)c2c1 [Example 183, (3R)-N-(2-cyano-3-{[3-(4-{4-[(3-{4-[(3R)-2,6-dioxopiperidin-3-yl]-2-fluorophenyl}azetidin-1-yl)methyl]piperidin-1-yl}phenyl)-4-oxo-3,4-dihydroquinazolin-6-yl]oxy}-4-fluorophenyl)-3-fluoropyrrolidine-1-sulfonamide]
DC50 [1]: 50 to 500 nM | Dmax [1]: 35 to 70% | DC50 [2]: > 30 nM

CCN(CC1CCN(c2ccc(-n3cnc4ccc(Oc5c(F)ccc(NS(=O)(=O)N6CC[C@@H](F)C6)c5C#N)cc4c3=O)cc2)CC1)[C@H]1C[C@@H](Oc2ccc3c(c2)CN([C@H]2CCC(=O)NC2=O)C3=O)C1 [Example 264, (3R)-N-{2-cyano-3-[(3-{4-[4-({ethyl[(1r,3r)-3-({2-[(3S)-2,6-dioxopiperidin-3-yl]-1-oxo-2,3-dihydro-1H-isoindol-5-yl}oxy)cyclobutyl]amino}methyl)piperidin-1-yl]phenyl}-4-oxo-3,4 dihydroquinazolin-6-yl)oxy]-4-fluorophenyl}-3-fluoropyrrolidine-1-sulfonamide]
DC50 [1]: 50 to 500 nM | Dmax [1]: 35 to 70% | DC50 [2]: 1 to 10 nM | Dmax [2]: 35 to 70%

CCN(C)S(=O)(=O)Nc1ccc(F)c(Oc2ccc3ncn(-c4ccc(N5CCN(CC6CN(c7ccc8c(c7)CN(C7CCC(=O)NC7=O)C8=O)C6)CC5)cc4)c(=O)c3c2)c1C#N (stereo not shown) [Example 181, 2-[(3-{4-[4-({1-[2-(2,6-dioxopiperidin-3-yl)-1-oxo-2,3-dihydro-1H-isoindol-5-yl]azetidin-3-yl}methyl)piperazin-1-yl]phenyl}-4-oxo-3,4-dihydroquinazolin-6-yl)oxy]-6-{[ethyl(methyl)sulfamoyl]amino}-3-fluorobenzonitrile]
DC50 [1]: 50 to 500 nM | Dmax [1]: 35 to 70% | DC50 [2]: 1 to 10 nM | Dmax [2]: ≤ 35%

COc1cc(N2CCN(CC3CCN(c4ccc(-n5cnc6ccc(Oc7c(F)ccc(NS(=O)(=O)N8CC[C@@H](F)C8)c7C#N)cc6c5=O)cn4)CC3)CC2)cc2c1C(=O)N(C1CCC(=O)NC1=O)C2=O (stereo partly drawn) [Example 138, (3R)-N-{2-cyano-3-[(3-{6-[4-({4-[2-(2,6-dioxopiperidin-3-yl)-7-methoxy-1,3-dioxo-2,3-dihydro-1H-isoindol-5-yl]piperazin-1-yl}methyl)piperidin-1-yl]pyridin-3-yl}-4-oxo-3,4-dihydroquinazolin-6-yl)oxy]-4-fluorophenyl}-3-fluoropyrrolidine-1-sulfonamide]
DC50 [1]: 50 to 500 nM | Dmax [1]: ≤ 35% | DC50 [2]: 1 to 10 nM | Dmax [2]: ≤ 35%

N#Cc1c(NS(=O)(=O)N2CC[C@@H](F)C2)ccc(F)c1Oc1ccc2ncn(-c3ccc(N4CCC(COCC5CCN(c6ccc7c(c6)C(=O)N(C6CCC(=O)NC6=O)C7=O)CC5)CC4)nc3)c(=O)c2c1 (stereo partly drawn) [Example 144, (3R)-N-(2-cyano-3-{[3-(6-{4-[{{1-[2-(2,6-dioxopiperidin-3-yl)-1,3-dioxo-2,3-dihydro-1H-isoindol-5-yl]piperidin-4-yl}methoxy)methyl]piperidin-1-yl}pyridin-3-yl)-4-oxo-3,4-dihydroquinazolin-6-yl]oxy}-4-fluorophenyl)-3-fluoropyrrolidine-1-sulfonamide]
DC50 [1]: 5 to 50 nM | Dmax [1]: ≤ 35% | DC50 [2]: 10 to 30 nM | Dmax [2]: ≤ 35%

N#Cc1c(NS(=O)(=O)N2CC[C@@H](F)C2)ccc(F)c1Oc1ccc2ncn(-c3ccc(C4CCC5(CC4)CCN(CC4CCN(c6ccc7c(c6)CN([C@H]6CCC(=O)NC6=O)C7=O)CC4)CC5)cc3)c(=O)c2c1 [Example 226, (3R)-N-(2-cyano-3-{[3-(4-{3-[(1-{2-[(3S)-2,6-dioxopiperidin-3-yl]-1-oxo-2,3-dihydro-1H-isoindol-5-yl}piperidin-4-yl)methyl]-3-azaspiro[5.5]undecan-9-yl}phenyl)-4-oxo-3,4-dihydroquinazolin-6-yl]oxy}-4-fluorophenyl)-3-fluoropyrrolidine-1-sulfonamide]
DC50 [1]: 50 to 500 nM | Dmax [1]: ≤ 35% | DC50 [2]: 1 to 10 nM | Dmax [2]: 35 to 70%

CCc1c(NS(=O)(=O)N2CC[C@@H](F)C2)ccc(F)c1Oc1ccc2ncn(-c3ccc(N4CCN(CC5CCN(c6ccc7c(c6)CN(C6CCC(=O)NC6=O)C7=O)CC5)CC4)cc3)c(=O)c2c1 (stereo partly drawn) [Example 227, (3R)-N-{3-[(3-{4-[4-({1-[2-(2,6-dioxopiperidin-3-yl)-1-oxo-2,3-dihydro-1H-isoindol-5-yl]piperidin-4-yl}methyl)piperazin-1-yl]phenyl}-4-oxo-3,4-dihydroquinazolin-6-yl)oxy]-2-ethyl-4-fluorophenyl}-3-fluoropyrrolidine-1-sulfonamide]
DC50 [1]: 50 to 500 nM | Dmax [1]: ≤ 35% | DC50 [2]: 10 to 30 nM | Dmax [2]: ≤ 35%

N#Cc1c(NS(=O)(=O)N2CC[C@@H](F)C2)ccc(F)c1Oc1ccc2ncn(-c3ccc(N4CC5(CC(CN6CCN(c7ccc8c(c7)CN([C@H]7CCC(=O)NC7=O)C8=O)CC6)C5)C4)cc3)c(=O)c2c1 [Example 191, (3R)-N-(2-cyano-3-{[3-(4-{6-[(4-{2-[(3S)-2,6-dioxopiperidin-3-yl]-1-oxo-2,3-dihydro-1H-isoindol-5-yl}piperazin-1-yl)methyl]-2-azaspiro[3.3]heptan-2-yl}phenyl)-4-oxo-3,4-dihydroquinazolin-6-yl]oxy}-4-fluorophenyl)-3-fluoropyrrolidine-1-sulfonamide]
DC50 [1]: 50 to 500 nM | Dmax [1]: 35 to 70% | DC50 [2]: 1 to 10 nM | Dmax [2]: 35 to 70%

N#Cc1c(NS(=O)(=O)N2CC[C@@H](F)C2)ccc(F)c1Oc1ccc2ncn(-c3ccc(N4CCC(CN5CCC(Oc6ccc7c(c6)C(=O)N(C6CCC(=O)NC6=O)C7=O)CC5)CC4)nc3)c(=O)c2c1 (stereo partly drawn) [Example 149, (3R)-N-(2-cyano-3-{[3-(6-{4-[(4-{[2-(2,6-dioxopiperidin-3-yl)-1,3-dioxo-2,3-dihydro-1H-isoindol-5-yl]oxy}piperidin-1-yl)methyl]piperidin-1-yl}pyridin-3-yl)-4-oxo-3,4-dihydroquinazolin-6-yl]oxy}-4-fluorophenyl)-3-fluoropyrrolidine-1-sulfonamide]
DC50 [1]: 5 to 50 nM | Dmax [1]: ≤ 35% | DC50 [2]: 10 to 30 nM | Dmax [2]: 35 to 70%

N#Cc1c(NS(=O)(=O)N2CC[C@@H](F)C2)ccc(F)c1Oc1ccc2ncn(-c3ccc(N4CCN(C(=O)C5CCN(c6ccc7c(c6)CN(C6CCC(=O)NC6=O)C7=O)CC5)CC4)cc3)c(=O)c2c1 (single isomer, unassigned) [Example 241, (3R)-N-{2-cyano-3-[(3-{4-[4-(1-{2-[(3R*)-2,6-dioxopiperidin-3-yl]-1-oxo-2,3-dihydro-1H-isoindol-5-yl}piperidine-4-carbonyl)piperazin-1-yl]phenyl}-4-oxo-3,4-dihydroquinazolin-6-yl)oxy]-4-fluorophenyl}-3-fluoropyrrolidine-1-sulfonamide]
DC50 [1]: > 500 nM | DC50 [2]: > 30 nM | Dmax [2]: 35 to 70%

N#Cc1c(NS(=O)(=O)N2CC[C@@H](F)C2)ccc(F)c1Oc1ccc2ncn(-c3ccc(N4CCN(CC5CN(c6ccc7c(c6)CN([C@@H]6CCC(=O)NC6=O)C7=O)C5)CC4)cc3)c(=O)c2c1 [Example 107, (3R)-N-(2-cyano-3-{[3-(4-{4-[(1-{2-[(3R)-2,6-dioxopiperidin-3-yl]-1-oxo-2,3-dihydro-1H-isoindol-5-yl}azetidin-3-yl)methyl]piperazin-1-yl}phenyl)-4-oxo-3,4-dihydroquinazolin-6-yl]oxy}-4-fluorophenyl)-3-fluoropyrrolidine-1-sulfonamide]
DC50 [1]: 5 to 50 nM | Dmax [1]: 35 to 70% | DC50 [2]: 1 to 10 nM | Dmax [2]: 35 to 70%

N#Cc1c(NS(=O)(=O)N2CC[C@@H](F)C2)ccc(F)c1Oc1ccc2ncn(-c3ccc(N4CCC(CN5CC6(CCC(c7ccc8c(c7)CN([C@H]7CCC(=O)NC7=O)C8=O)CC6)C5)CC4)cc3)c(=O)c2c1 [Example 219, (3R)-N-(2-cyano-3-{[3-(4-{4-[(7-{2-[(3S)-2,6-dioxopiperidin-3-yl]-1-oxo-2,3-dihydro-1H-isoindol-5-yl}-2-azaspiro[3.5]nonan-2-yl)methyl]piperidin-1-yl}phenyl)-4-oxo-3,4-dihydroquinazolin-6-yl]oxy}-4-fluorophenyl)-3-fluoropyrrolidine-1-sulfonamide]
DC50 [1]: 50 to 500 nM | Dmax [1]: 35 to 70% | DC50 [2]: 1 to 10 nM | Dmax [2]: 35 to 70%
